# In patent US20110319484A1, “NEUROPROTECTIVE COMPOUNDS” (Parque Tecnologico de Ciencias de la Salud, priority 2009, published 2011):
# Assays:
# HMG-CoA reductase enzyme = target: T1, HMG-CoA reductase enzyme (Homo sapiens, UniProt P04035); test: HMG-CoA reductase inhibition, spectrophotometric NADPH oxidation at 340 nm; assay type: biochemical; conditions: for IC50: four independent assays, Trimmed Spearman-Karber method; for inhibition power of HMG-CoA reductase, times less than that of atorvastatin: relative to atorvastatin
# T1 construct: the oxidation of the NADPH by the catalytic subunit of the HMG-CoA reductase
# T1 sequence (P04035 340-888 limits assumed): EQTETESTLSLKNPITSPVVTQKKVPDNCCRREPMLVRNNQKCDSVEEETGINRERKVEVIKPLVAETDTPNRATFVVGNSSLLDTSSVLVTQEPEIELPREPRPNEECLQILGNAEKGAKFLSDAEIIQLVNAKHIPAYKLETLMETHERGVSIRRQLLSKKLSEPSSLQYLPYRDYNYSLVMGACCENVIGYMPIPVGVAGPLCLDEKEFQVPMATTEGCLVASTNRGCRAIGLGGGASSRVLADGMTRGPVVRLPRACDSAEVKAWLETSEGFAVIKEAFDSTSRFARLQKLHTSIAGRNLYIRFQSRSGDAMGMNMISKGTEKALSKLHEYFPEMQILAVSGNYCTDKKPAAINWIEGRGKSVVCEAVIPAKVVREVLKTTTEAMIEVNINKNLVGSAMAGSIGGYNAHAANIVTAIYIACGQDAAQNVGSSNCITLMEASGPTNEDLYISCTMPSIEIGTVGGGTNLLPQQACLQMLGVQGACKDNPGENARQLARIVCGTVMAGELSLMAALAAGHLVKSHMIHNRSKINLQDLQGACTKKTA
# Text: To that end, the degree of inhibition of the HMG-CoA reductase enzyme by the different (1S,3R,7S,8S,8aR)-1,2,3,7,8,8a-hexahydro-3,7-dimethyl-8-[2-[(2R,4R)-tetrahydro-4-hydroxy-6-oxo-2H-pyran-2-yl]ethyl-1-naphthalenyl propanoate derivatives, optionally mono- or di-methylated at the carbon in the alpha position of propanoic acid (NST0003, NST0004 and NST0005) was studied.
# During the reaction, the HMG-CoA reductase uses NADPH as a reducing agent and 3-hydroxy-3-methylglutaryl coenzyme A (HMG-CoA) as a substrate. Mevalonic acid, which serves as a substrate for the following reaction in order to continue with the cholesterol synthesis, is obtained as a reaction product. The enzymatic reaction object of study is schematically shown as follows:
# This in vitro assay is based on the spectrophotometric measurement of the decrease of absorbance at 340 nm, representing the oxidation of the NADPH by the catalytic subunit of the HMG-CoA reductase in the presence of the HMG-CoA reductase substrate. The assay was carried out in a 96-well plate, with a total reaction volume of 200 μl. The reaction buffer (50 mM KH2PO4, 1 M KCl, 2 mg/ml bovine serum albumin (BSA) and 5 mM DTT, at pH=7.3) was prepared at the time of carrying out the reaction and was maintained at 37° C.
# Four independent assays were carried out. […] The concentrations of the reagents involved in the reaction mixture were the following: 0.2 mM HMG-CoA, 3 μU/reaction HMG-CoA reductase and 0.2 mM NADPH. After brief agitation, the reading of the plate was taken in a spectrophotometer at the conditions of 340 nm, 37° C., detecting the decrease of absorbance at 340 nm over time. The percentage of HMG-CoA reductase enzymatic activity with respect to the control was calculated. The IC50 was calculated with the data obtained by means of the Trimmed Spearman-Karber method (Version 1.5).
# [1] = tested on: human neuroblastoma SK-N-MC cells; test: Inhibition of ROS production induced by xanthine/xanthine oxidase (H2DCFDA probe, LDH-normalized); assay type: cell-based; conditions: XXO 10 μM-100 mU/ml, 3 h, at 10 μg/ml, inhibition observed at 10 and 20 μg/ml, read-out: maximum inhibition of ROS production relating to XXO
# Method: The assay was performed on human neuroblastoma SK-N-MC cells in culture from the American Type Culture Collection (ATCC) (HTB-10), in all cases strict rules of sterility were followed and the manipulation was performed in class II biological safety cabinets following European standard EN 12469. The cells were maintained in Minimum Essential Medium Eagle (MEM) culture medium supplemented with 1 mM sodium pyruvate, 2 mM L-glutamine, 0.1 mM non-essential amino acids, 0.05 mg/ml gentamicin and 10% fetal bovine serum.
# The inhibition by the NST0003 compound [(1S,3R,7S,8S,8aR)-1,2,3,7,8,8a-hexahydro-3,7-dimethyl-8-[2-[(2R,4R)-tetrahydro-4-hydroxy-6-oxo-2H-pyran-2-yl]ethyl-1-naphthalenyl propanoate] on the production of reactive oxygen species (ROS) in the SK-N-MC cells, was analyzed. […]
# The cells were incubated (at 37° C. and 5% CO2) with these treatments for 3 h, after which time they were washed with HKRB buffer (20 mM HEPES, 103 mM NaCl, 4.77 mM KCl, 0.5 mM CaCl2, 1.2 mM MgCl2, 1.2 mM KH2PO4, 25 mM […], 15 mM glucose; at pH 7.3) after which the 2′,7′-dichlorodihydrofluorescein diacetate (H2DCFDA) probe was added at 30 μM diluted in HKRB buffer and it was incubated for another 2 hours in the same conditions. The reading of the plate was taken in a fluorometer at the conditions of 485 nm for excitation and 538 nm for emission. […]
Compound,IC50 (HMG-CoA reductase enzyme),"inhibition power of HMG-CoA reductase, times less than that of atorvastatin (HMG-CoA reductase enzyme)",inhibition at 10 µg/mL [1]
"CCC(=O)O[C@H]1C[C@@H](C)C=C2C=C[C@H](C)[C@H](CC[C@@H]3C[C@@H](O)CC(=O)O3)[C@H]21 [NST0003, (1S,3R,7S,8S,8aR)-1,2,3,7,8,8a-hexahydro-3,7-dimethyl-8-[2-[(2R,4R)-tetrahydro-4-hydroxy-6-oxo-2H-pyran-2-yl]ethyl-1-naphthalenyl propanoate]",40.6 µM,170 times,33%
CC(C)C(=O)O[C@H]1C[C@@H](C)C=C2C=C[C@H](C)[C@H](CC[C@@H]3C[C@@H](O)CC(=O)O3)[C@H]21 [NST0004],23.2 µM,100 times,–
C[C@H]1C=C2C=C[C@H](C)[C@H](CC[C@@H]3C[C@@H](O)CC(=O)O3)[C@H]2[C@@H](OC(=O)C(C)(C)C)C1 [NST0005],0.865 µM,4 times,–
